Measurements from US6716628B2, “Chondrogenesis promoters and indolin-2-one derivatives” (Chugai Seiyaku Kabushiki Kaisha, priority 1999, dated 2004).

Assays:
[1] = tested on: common mouse chondrocyte and adipocyte precursor cell line (CL-1); test: Uptake of 35S-labeled sulfuric acid into CL-1; type: cell-based; details: 10 μmol/L (A and F also 1 or 5 μmol/L), 48 h culture, uptake in final 24 h
Experimental: The above-mentioned cell line CL-1 was cultured in a 96-well cell culturing plate (Wallac Corp.) for a liquid scintillation counter (Wallac Corp.) to a cell density of 1000 per well. The medium used was α-MEM (GIBCO Corp.) containing 100 U/mL of penicillin (Meiji Seika Co., Ltd.), 100 μg/mL of streptomycin (Banyu Pharmaceutical Corp.) and 10% fetal bovine serum (INTERGEN Corp.). When the CL-1 cells reached confluency, the medium was exchanged with one containing 10 μmol/L of compounds A, B, C, D, E, F and G, and after 24 hours, ^35S-labeled sulfuric acid was added at 0.5 μCi per well and culturing was continued. For compounds A and F, a medium was also prepared with a concentration of 1 or 5 μmol/L. After 24 hours, the medium was discarded and the cell layer was fixed for 2 hours at room temperature using 0.2 mL of 5% paraformaldehyde (0.1 mol/L phosphate buffer solution (pH 7.4, Wako Pure Chemical Industries) containing 0.4% cetylpyridinium chloride (Wako Pure Chemical Industries). After discarding the fixing solution, it was washed once with the same solution and the washed solution was discarded. After adding 0.1 mL of scintillator (Wallac Corp.) to the cell layer and stirring, the radioactivity was measured with a scintillation counter (Wallac Corp.).

[2] = tested on: common mouse chondrocyte and adipocyte precursor cell line (CL-1); test: Uptake of 35S-labeled sulfuric acid into CL-1; type: cell-based; details: 10 μmol/L (A and F also 1 or 5 μmol/L), 48 h culture
articular cartilage = details: cited from earlier work
[3] = tested on: experimental animal models with induced arthritis; details: administered intraarticularly; Lab. Invest. 78(2):133-142, 1998; cited from earlier work

Compound | differentiation of CL-1 to chondrocytes (from 35S-labeled sulfuric acid uptake) [1] | differentiation of CL-1 to adipocytes [2] | synovitis (articular cartilage; in vivo) | arthritis-induced loss of proteoglycans in articular cartilage [3] | chondrogenesis (articular cartilage; intraarticularly administered, Lab. Invest. 71(2):279-290, 1994)
CCOC(CN1C(=O)[C@](CC(=O)Nc2ccc(CC)cc2)(NC(=O)Nc2ccc(C)cc2)c2ccccc21)OCC [Compound B, (3R)-1-(2,2-diethoxyethyl)-3-(4-ethylphenyl)aminocarbonylmethyl-3-(N′-(4-methylphenyl)ureido)indolin-2-one] | clearly promote | clearly suppress | – | – | –
Cc1ccc(NC(=O)C[C@]2(NC(=O)Nc3ccc(C)cc3)C(=O)N(CC(OCCCl)OCCCl)c3ccccc32)cc1 [Compound G, 3R)-1-(2,2-bis(2-chloroethoxy)ethyl)-3-((4-methylphenyl) 3-(N′-(4-methylphenyl)ureido)indolin-2-one] | clearly promote | clearly suppress | – | – | –
CCOC(CN1C(=O)[C@](CC(=O)Nc2ccc(N(C)C)cc2)(NC(=O)Nc2ccc(C)cc2)c2ccccc21)OCC [Compound C] | clearly promote | clearly suppress | – | – | –
Cc1ccc(NC(=O)C[C@]2(NC(=O)Nc3ccc(C)cc3)C(=O)N(CC(OCCF)OCCF)c3ccccc32)cc1 [Compound F] | clearly promote | clearly suppress | – | – | –
TGF-β | – | – | provoke synovitis | – | –
3R)-1-(2,2-diisopropoxyethyl)-3-((4-methylphenyl) aminocarbonylmethyl)-3-(N′-(4-methylphenyl)ureido)indolin-2-one [Compound E] | clearly promote | clearly suppress | – | – | –
COC(CN1C(=O)C(CC(=O)Nc2ccc(C)cc2)(NC(=O)Nc2ccc(C)cc2)c2ccccc21)OC (stereo not drawn) [Compound D] | clearly promote | clearly suppress | – | – | –
TGF-β1: one isoform of TGF-β (Transforming growth factor β) | – | – | – | suppresses | promote chondrogenesis
